Test results from the supplement of paper PMC7840683.
± gives the standard deviation of the averaged measurements.

Test system: HepaRG
Assay: LDH release cytotoxicity, % of total lysis control; higher = more cytotoxic
Settings: 48 h
Outline: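 The CytoTox-ONE kit was used to read LDH in 50 µL spent medium as resorufin fluorescence on a Tecan Safire, with 0.1% Triton X added to total lysis wells. Beforehand, single-lot HepaRG cells on collagen I-coated 96-well plates had been exposed in duplicate for 48 h to eight-point half-log series (top 100 µM) in serum-free induction medium containing 0.5% DMSO. Percent cytotoxicity was normalized against on-plate vehicle and total lysis controls and averaged over duplicates.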

SMILES	LDH release cytotoxicity (0.03162 µM)	LDH release cytotoxicity (0.1 µM)	LDH release cytotoxicity (0.3162278 µM)	LDH release cytotoxicity (1 µM)	LDH release cytotoxicity (3.16228 µM)	LDH release cytotoxicity (10 µM)	LDH release cytotoxicity (31.6228 µM)	LDH release cytotoxicity (100 µM)	LDH release cytotoxicity (0.031623 µM)	LDH release cytotoxicity (0.316228 µM)
Cc1c(C)c2c(c(C)c1O)CCC(C)(COc1ccc(CC3SC(=O)NC3=O)cc1)O2 (centres undefined) [Troglitazone]	-0.878 ± 0.32%	-0.342 ± 0.96%	-1.04 ± 0.091%	-0.379 ± 0.37%	-0.376 ± 0.74%	-1.1 ± 0.028%	8.12 ± 13%	62.4 ± 2.7%		
CCCCCCCCCCC [Undecane]		-0.1 ± 0.21%		-2.3 ± 0.12%	-2.08 ± 1.2%	-0.723 ± 1.2%	-0.989 ± 1.3%	1.06 ± 0.61%	-1.34 ± 0.15%	-2.37 ± 1.8%
NC(N)=O [Urea]	-1.69 ± 0.59%	-0.896 ± 0.18%	-1.17 ± 0.012%	-1.62 ± 0.5%	-0.792 ± 0.012%	-0.693 ± 0.13%	-1.24 ± 0.23%	1.24 ± 0.49%		
CCOC(N)=O [Urethane]	-1.53 ± 1%	-1.5 ± 0.84%	-1.42 ± 0.68%	-1.29 ± 0.5%	-1.03 ± 0.12%	-1.2 ± 0.054%	-0.4372 ± 0.0016%	0.365 ± 1.2%		
CCCC(CCC)C(=O)O [Valproic acid]		-2.27 ± 0.28%		-2.73 ± 0.65%	-1.85 ± 0.16%	-2.14 ± 2%	-1.38 ± 0.12%	-0.176 ± 0.59%	-0.788 ± 0.37%	-1.27 ± 1.4%
CCCSC(=O)N(CCC)CCC [Vernolate]	-0.794 ± 1.3%	-0.827 ± 0.35%	-0.738 ± 0.55%	-2.07 ± 0.39%	-1.14 ± 0.45%	-0.659 ± 0.55%	0.0809 ± 0.59%	1.84 ± 0.39%		
C=CC1(C)OC(=O)N(c2cc(Cl)cc(Cl)c2)C1=O (centres undefined) [Vinclozolin]		-2.45 ± 0.46%		-1.77 ± 2.5%	-1.59 ± 1.1%	-1.87 ± 1.3%	-1.19 ± 0.41%	0.481 ± 0.36%	-0.342 ± 2.7%	-2.11 ± 1.4%
COc1cccc(C(O)C2CCN(CCc3ccc(F)cc3)CC2)c1OC (centres undefined) [Volinanserin]	-0.377 ± 0.72%	-1.03 ± 1.4%	0.298 ± 1.8%	-0.566 ± 0.98%	-0.0858 ± 0.33%	-1.21 ± 0.87%	0.408 ± 1.3%	7.12 ± 0.34%		
